Experimental data reported in PubChem BioAssay (NCI).
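GI50 is the concentration that inhibits growth by half. TGI: concentration producing complete growth inhibition.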

What was measured:
Test in all cases: NCI anticancer screen, dose series, 384-well format
SR leukemia = test system: SR leukemia
NCI-H226 lung = test system: NCI-H226 lung
SK-OV-3 ovarian = test system: SK-OV-3 ovarian
SK-MEL-28 melanoma = test system: SK-MEL-28 melanoma
A498 renal = test system: A498 renal
HOP-62 NSCLC = test system: HOP-62 NSCLC
HS 578T breast = test system: HS 578T breast
T-47D breast = test system: T-47D breast
CAKI-1 renal = test system: CAKI-1 renal
SNB-19 CNS = test system: SNB-19 CNS
RPMI-8226 leukemia = test system: RPMI-8226 leukemia
HCC-2998 colon = test system: HCC-2998 colon
SW-620 colon = test system: SW-620 colon
HOP-92 NSCLC = test system: HOP-92 NSCLC
SK-MEL-5 melanoma = test system: SK-MEL-5 melanoma
MDA-MB-231 breast = test system: MDA-MB-231 breast
MOLT-4 leukemia = test system: MOLT-4 leukemia
OVCAR-8 ovarian = test system: OVCAR-8 ovarian
SN12C renal = test system: SN12C renal
DU-145 prostate = test system: DU-145 prostate
786-0 renal = test system: 786-0 renal
HL-60(TB) leukemia = test system: HL-60(TB) leukemia
OVCAR-3 ovarian = test system: OVCAR-3 ovarian
RXF 393 renal = test system: RXF 393 renal

Q: `O=C(/C=C/c1cccc(S(=O)(=O)Nc2ccccc2)c1)NO` was tested. Which TGI (SR leukemia) did it give?
A: 204 nM

Q: What about the GI50 (NCI-H226 lung) of the same molecule?
A: 1260 nM

Q: What about the TGI (NCI-H226 lung) of the same molecule?
A: 3.05 µM

Q: And the GI50 (SK-OV-3 ovarian)?
A: 490 nM

Q: And the TGI (SK-OV-3 ovarian)?
A: 1650 nM

Q: What about the GI50 (SK-MEL-28 melanoma) of the same molecule?
A: 565 nM

Q: What about the TGI (SK-MEL-28 melanoma) of the same molecule?
A: 1890 nM

Q: What about the GI50 (A498 renal) of the same molecule?
A: 494 nM

Q: And the TGI (A498 renal)?
A: 1450 nM

Q: What about the GI50 (HOP-62 NSCLC) of the same molecule?
A: 498 nM

Q: What about the TGI (HOP-62 NSCLC) of the same molecule?
A: 2330 nM

Q: And the GI50 (HS 578T breast)?
A: 474 nM

Q: And the TGI (HS 578T breast)?
A: 1600 nM

Q: What about the GI50 (T-47D breast) of the same molecule?
A: 208 nM

Q: What about the TGI (T-47D breast) of the same molecule?
A: 547 nM

Q: And the GI50 (CAKI-1 renal)?
A: 218 nM

Q: What about the TGI (CAKI-1 renal) of the same molecule?
A: 885 nM

Q: And the GI50 (SNB-19 CNS)?
A: 853 nM

Q: What about the TGI (SNB-19 CNS) of the same molecule?
A: 2240 nM

Q: What about the GI50 (RPMI-8226 leukemia) of the same molecule?
A: 95.7 nM

Q: What about the TGI (RPMI-8226 leukemia) of the same molecule?
A: 221 nM

Q: What about the GI50 (HCC-2998 colon) of the same molecule?
A: 490 nM

Q: What about the TGI (HCC-2998 colon) of the same molecule?
A: 1220 nM

Q: What about the GI50 (SW-620 colon) of the same molecule?
A: 188 nM

Q: What about the TGI (SW-620 colon) of the same molecule?
A: 436 nM

Q: And the GI50 (HOP-92 NSCLC)?
A: 343 nM

Q: And the TGI (HOP-92 NSCLC)?
A: 1070 nM

Q: What about the GI50 (SK-MEL-5 melanoma) of the same molecule?
A: 155 nM

Q: And the TGI (SK-MEL-5 melanoma)?
A: 393 nM

Q: What about the GI50 (MDA-MB-231 breast) of the same molecule?
A: 249 nM

Q: And the TGI (MDA-MB-231 breast)?
A: 575 nM

Q: And the GI50 (MOLT-4 leukemia)?
A: 137 nM

Q: And the TGI (MOLT-4 leukemia)?
A: 267 nM

Q: What about the GI50 (OVCAR-8 ovarian) of the same molecule?
A: 225 nM

Q: What about the TGI (OVCAR-8 ovarian) of the same molecule?
A: 985 nM

Q: And the GI50 (SN12C renal)?
A: 853 nM

Q: What about the TGI (SN12C renal) of the same molecule?
A: 2250 nM

Q: What about the GI50 (DU-145 prostate) of the same molecule?
A: 260 nM

Q: What about the TGI (DU-145 prostate) of the same molecule?
A: 793 nM

Q: And the GI50 (786-0 renal)?
A: 898 nM

Q: And the TGI (786-0 renal)?
A: 2780 nM

Q: What about the GI50 (HL-60(TB) leukemia) of the same molecule?
A: 223 nM

Q: What about the TGI (HL-60(TB) leukemia) of the same molecule?
A: 373 nM

Q: What about the GI50 (OVCAR-3 ovarian) of the same molecule?
A: 299 nM

Q: What about the TGI (OVCAR-3 ovarian) of the same molecule?
A: 1280 nM

Q: What about the GI50 (RXF 393 renal) of the same molecule?
A: 87.7 nM

Q: What about the TGI (RXF 393 renal) of the same molecule?
A: 365 nM
